Values joined by “and” are separate entries in the source; they are usually repeats but may differ in a detail not shown here. Equal entries are not always repeated. “Also recorded” adds a separate entry of the source. Where two headings read alike, the source gives them in different places.
Tests used:
[1] = pK BHX scale; no reference given; cited from earlier work
[2] = target: T1, NRP1 b1 domain (Homo sapiens, UniProt O14786); test: SPR binding to immobilized NRP1 b1 domain (Biacore 4000, CM5 chip); settings: steady-state binding, 25 °C, mean ± SD; for Kd: read-out: SPR NRP1 b1 domain equilibrium KD
T1 construct: with the purified recombinant NRP1 b1 domain immobilized on the chip; inferred from Ni-NTA capture), TEV-cleavable (cleaved yes); made in house; host or cells: E. coli Rosetta (DE3)
T1 sequence (O14786 275-424 limits assumed): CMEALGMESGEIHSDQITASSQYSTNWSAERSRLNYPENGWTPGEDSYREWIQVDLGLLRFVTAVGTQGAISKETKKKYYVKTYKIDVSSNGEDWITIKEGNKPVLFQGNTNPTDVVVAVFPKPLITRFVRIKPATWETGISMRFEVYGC
Experimental: Surface Plasmon Resonance experiments were performed using a Biacore 4000 instrument at a constant temperature of 25 °C. Sensor chips, buffer stock solutions, and immobilization reagents were purchased from GE Healthcare. Recombinant human NRP1-b1 was produced in-house and recombinant human NRP1-ECD (extracellular domain) was purchased from ACRO (catalogue number NR1-H5A228). All other reagents were obtained from Sigma.
PBS containing 0.05% surfactant P20 was used as the running buffer during immobilization. NRP1-b1 was immobilized onto a CM5 chip using random amine coupling. The four flow cells were treated in the same way to optimize throughput. In summary, spots 1 and 2 were activated with the coupling reagents EDC and NHS for 10 min. NRP1-b1 at a concentration of 20 μg/mL in 10 mM sodium acetate pH 5 was injected onto the surface for 10 and 5 min in spots 1 and 2, respectively to generate surfaces with high and low density. […] The unmodified spot 3 was used as a reference.
PBS buffer containing 0.05% surfactant P20 and 3% DMSO was used as the running buffer and sample dilution buffer throughout these experiments. Dose–responses were obtained using a 2-fold sample dilution from 16 μM to 31 nM, using an injection time of 60 s. Surface regeneration between injections was not necessary, but a wash step with 1 M NaCl was included after injection of the highest concentration sample for each compound.
Binding curves were corrected for variations in DMSO concentration and normalized by molecular weight. Binding results to high and low-density surfaces were processed independently and the average ± SD is presented. K Ds reported are derived from steady-state binding responses and therefore correspond to the equilibrium binding affinity of the compounds.

[3] = target: T2, NRP1-a1,b1 (Homo sapiens, UniProt O14786); test: bt-VEGFA cell-free competition binding assay (plate-based)
T2 sequence (O14786 273-427 limits assumed): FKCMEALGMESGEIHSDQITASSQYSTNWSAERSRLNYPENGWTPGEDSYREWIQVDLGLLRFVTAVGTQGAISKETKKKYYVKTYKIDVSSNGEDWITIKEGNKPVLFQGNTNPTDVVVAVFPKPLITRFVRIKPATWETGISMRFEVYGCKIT
Experimental: The assay was conducted as previously described. Briefly, the 96-well plates were precoated with NRP1 protein at 3 μg/mL overnight at 4 °C. On the following day, the plates were treated with blocking buffer (PBS containing 1%1% BSA) and washed three times with wash buffer (PBS containing 0.1% Tween-20). The various concentrations of compounds diluted in PBS containing 1%1% DMSO were added, followed by addition of 0.25 nM of bt-VEGFA165. After 2 h of incubation at room temperature, the plates were washed three times with wash buffer. The bound bt-VEGFA165 to NRP1 was detected by streptavidin– horseradish peroxidase conjugates and the enzyme substrate, and measured using a Tecan Genius plate reader at 450 nm with a reference wavelength at 595 nm. Nonspecific binding was determined in the absence of NRP1-coated wells of the plates.

[4] = Pharmacokinetics in mice, 2 mg/kg iv; assay type: in vivo; settings: female, BALB/c, mouse, plasma; for clearance: iv, 2 mg/kg; for AUC: read-out: AUCall
Experimental: To test compound drug-like properties, selected compounds with low IC50 were further evaluated for their pharmacokinetic (PK) profile. 6–8 week-old BABL/c female mice were used. Two mg/kg of compounds was formulated in 7.5% DMSO and 92.5% PBS solution and intravenously dosed into the tail vein as a bolus. Blood samples were collected by cardiac puncture at 5, 15, 30, 60, 180, and 240 min post dosing. Plasma samples were prepared by centrifugation at 7000 rpm for 5 min, and supernatants were collected, immediately snap-frozen on dry ice and stored at −20 °C. Samples were analyzed by liquid chromatography-tandem mass spectrometry using electrospray ionization and data was analyzed by WinNonlin software.

[5] = Solubility (observation during SPR); assay type: physicochemical; settings: noted with SPR data fitting
[6] = 0.25 nM bt-VEGFA165, mean ± SEM, at least three independent experiments, read-out: Competition analysis bt-VEGFA, cell-free NRP1-a1,b1 IC50
[7] = plate-based assay, Figure 2D, read-out: IC50, competitive inhibition of bt-VEGFA binding to NRP1

Question: With `CCOCC` [diethyl ether] as the compound, how does the “pK BHX (hydrogen bond acceptor strength)” value [1] read?
Answer: 1.01

Question: Which results are given for `N=C(N)NCCC[C@H](NC(=O)c1sccc1NS(=O)(=O)c1cccc2cccnc12)C(=O)O` [Compound 12o, (S)-5-Guanidino-2-{[3-(quinoline-8-sulfonylamino)-thiophene-2-carbonyl]-amino}-pentanoic Acid]?
Answer: Kd [2]: 1410 ± 160 nM; IC50 [3, 6]: 900 ± 160 nM

Question: Which Kd [2] does the source give for `N=C(N)NCCC[C@H](NC(=O)c1sccc1NS(=O)(=O)c1cc(NCc2csc(N)n2)cc2cccnc12)C(=O)O` [Compound 12i, (2S)-2-[[3-[[6-[(2-Aminothiazol-4-yl)-methylamino]-8-quinolyl]-sulfonylamino]-thiophene-2-carbonyl]-amino]-5-guanidino-pentanoic Acid, Formic Acid] here?
Answer: 1040 ± 120 nM

Question: With `C1CCOC1` [tetrahydrofuran] as the compound, how does the “pK BHX (hydrogen bond acceptor strength)” value [1] read?
Answer: 1.28

Question: Which Kd [2] does the source give for `Cn1cncc1CNCc1ccc(-c2cc(S(=O)(=O)Nc3ccsc3C(=O)N[C@@H](CCCNC(=N)N)C(=O)O)c3ncccc3c2)cc1` [Compound 12c, (2S)-5-Guanidino-2-[[3-[[6-[4-[[(3-methylimidazol-4-yl)-methylamino]-methyl]-phenyl]-8-quinolyl]-sulfonylamino]-thiophene-2-carbonyl]-amino]-pentanoic Acid, Formic Acid] here?
Answer: 800 ± 140 nM

Question: Which Kd [2] does the source give for `N=C(N)NCCC[C@H](NC(=O)c1sccc1NS(=O)(=O)c1cc(NCc2ccc(N)nc2)cc2cccnc12)C(=O)O` [Compound 12l, (2S)-2-[[3-[[6-[(6-Amino-3-pyridyl)-methylamino]-8-quinolyl]-sulfonylamino]-thiophene-2-carbonyl]-amino]-5-guanidino-pentanoic Acid, Formic Acid] here?
Answer: 1230 ± 360 nM

Question: With `N=C(N)NCCC[C@H](NC(=O)c1sccc1NS(=O)(=O)c1cc(-c2csc(N)n2)cc2cccnc12)C(=O)O` [Compound 12q, (S)-2-({3-[6-(2-Amino-thiazol-4-yl)-quinoline-8-sulfonylamino]-thiophene-2-carbonyl}-amino)-5-guanidino-pentanoic Acid] as the compound, how does the Kd [2] read?
Answer: 510 nM and 2540 nM

Question: For `CN(C)c1nc(CNc2cc(S(=O)(=O)Nc3ccsc3C(=O)N[C@@H](CCCNC(=N)N)C(=O)O)c3ncccc3c2)cs1.O=CO` [Compound 12g, (2S)-2-[[3-[[6-[[2-(Dimethylamino)-thiazol-4-yl]-methylamino]-8-quinolyl]-sulfonylamino]-thiophene-2-carbonyl]-amino]-5-guanidino-pentanoic Acid, Formic Acid], which AUC(0-inf) [4] is on record?
Answer: 491 ng·h/mL

Question: What about the AUC(0-t) [4] of the same compound?
Answer: 490 ng·h/mL

Question: And the Cmax [4]?
Answer: 2050 ng/mL

Question: And the Tmax [4]?
Answer: 4.8 min

Question: And the Vd [4]?
Answer: 0.569 L/kg

Question: And the half-life [4]?
Answer: 23.4 min

Question: And the clearance [4]?
Answer: 67.9 mL/min/kg

Question: What about the AUC [4] of the same compound?
Answer: 490 ng·h/mL

Question: And the “SPR NRP1 b1 domain equilibrium KD” value [2]?
Answer: did not converge; also recorded: Curve fit does not converge

Question: And the IC50 [3, 7]?
Answer: < 500 nM

Question: And the solubility [5]?
Answer: poor solubility

Question: For `Cn1cncc1CNCc1cccc(-c2cc(S(=O)(=O)Nc3ccsc3C(=O)N[C@@H](CCCNC(=N)N)C(=O)O)c3ncccc3c2)c1` [Compound 12a, (2S)-5-Guanidino-2-[[3-[[6-[3-[[(3-methylimidazol-4-yl)-methylamino]-methyl]-phenyl]-8-quinolyl]-sulfonylamino]-thiophene-2-carbonyl]-amino]-pentanoic Acid, Formic Acid], which Kd [2] is on record?
Answer: 1440 ± 130 nM

Question: For `c1c[nH]cn1` [imidazole], which “pK BHX (hydrogen bond acceptor strength)” value [1] is on record?
Answer: 2.72

Question: Which Kd [2] does the source give for `N=C(N)NCCC[C@H](NC(=O)c1sccc1NS(=O)(=O)c1cc(-c2ccnc(N)c2)cc2cccnc12)C(=O)O` [Compound 12f, (2S)-2-[[3-[[6-(2-Amino-4-pyridyl)-8-quinolyl]-sulfonylamino]-thiophene-2-carbonyl]-amino]-5-guanidino-pentanoic Acid, Formic Acid] here?
Answer: 1490 ± 200 nM

Question: With `N=C(N)NCCC[C@H](NC(=O)c1sccc1NS(=O)(=O)c1cc(NCc2cccc(N3CCOCC3)n2)cc2cccnc12)C(=O)O` [Compound 12k, (2S)-5-Guanidino-2-[[3-[[6-[(6-morpholino-2-pyridyl)-methylamino]-8-quinolyl]-sulfonylamino]-thiophene-2-carbonyl]-amino]-pentanoic Acid] as the compound, how does the Kd [2] read?
Answer: 1140 ± 120 nM

Question: With `N=C(N)NCCC[C@H](NC(=O)c1sccc1NS(=O)(=O)c1cc(-c2ccc(CN)cc2)cc2cccnc12)C(=O)O` [Compound 12e, (2S)-2-[[3-[[6-[4-(Aminomethyl)-phenyl]-8-quinolyl]-sulfonylamino]-thiophene-2-carbonyl]-amino]-5-guanidino-pentanoic Acid, Formic Acid] as the compound, how does the Kd [2] read?
Answer: 920 ± 150 nM

Question: Which Kd [2] does the source give for `CN(C)c1ncc(CNc2cc(S(=O)(=O)Nc3ccsc3C(=O)N[C@@H](CCCNC(=N)N)C(=O)O)c3ncccc3c2)cn1` [Compound 12m, (2S)-2-[[3-[[6-[[2-(Dimethylamino)-pyrimidin-5-yl]-methylamino]-8-quinolyl]-sulfonylamino]-thiophene-2-carbonyl]-amino]-5-guanidino-pentanoic Acid] here?
Answer: 7710 ± 310 nM

Question: With `CN(C)c1ccc(CNc2cc(S(=O)(=O)Nc3ccsc3C(=O)N[C@@H](CCCNC(=N)N)C(=O)O)c3ncccc3c2)cn1` [Compound 12n, (2S)-2-[[3-[[6-[[6-(Dimethylamino)-3-pyridyl]-methylamino]-8-quinolyl]-sulfonylamino]-thiophene-2-carbonyl]-amino]-5-guanidino-pentanoic Acid] as the compound, how does the Kd [2] read?
Answer: 820 ± 100 nM

Question: For `c1ccc2ncccc2c1` [quinoline], which “pK BHX (hydrogen bond acceptor strength)” value [1] is on record?
Answer: 1.89

Question: With `CNCc1ccc(-c2cc(S(=O)(=O)Nc3ccsc3C(=O)N[C@@H](CCCNC(=N)N)C(=O)O)c3ncccc3c2)cc1` [Compound 12b, (2S)-5-Guanidino-2-[[3-[[6-[4-(methylaminomethyl)-phenyl]-8-quinolyl]-sulfonylamino]-thiophene-2-carbonyl]-amino]-pentanoic Acid, Formic Acid] as the compound, how does the Kd [2] read?
Answer: 2270 ± 70 nM

Question: Which AUC(0-inf) [4] does the source give for `CNc1nc(CNc2cc(S(=O)(=O)Nc3ccsc3C(=O)N[C@@H](CCCNC(=N)N)C(=O)O)c3ncccc3c2)cs1` [Compound 12j, (2S)-5-Guanidino-2-[[3-[[6-[[2-(methylamino)-thiazol-4-yl]-methylamino]-8-quinolyl]-sulfonylamino]-thiophene-2-carbonyl]-amino]-pentanoic Acid] here?
Answer: 643 ng·h/mL

Question: What about the AUC(0-t) [4] of the same compound?
Answer: 640 ng·h/mL

Question: What about the Cmax [4] of the same compound?
Answer: 2500 ng/mL

Question: And the Tmax [4]?
Answer: 4.8 min

Question: What about the Vd [4] of the same compound?
Answer: 0.628 L/kg

Question: What about the half-life [4] of the same compound?
Answer: 36 min

Question: What about the clearance [4] of the same compound?
Answer: 51.9 mL/min/kg

Question: What about the AUC [4] of the same compound?
Answer: 640 ng·h/mL

Question: And the Kd [2]?
Answer: 530 ± 140 nM

Question: What about the IC50 [3, 6] of the same compound?
Answer: 450 ± 10 nM

Question: And the IC50 [3, 7]?
Answer: < 500 nM

Question: And the “Competition analysis bt-VEGFA, cell-free NRP1-a1,b1 Hill coefficient” value ([3]; value in parentheses)?
Answer: 1.0

Question: With `N=C(N)NCCC[C@H](NC(=O)c1sccc1NS(=O)(=O)c1cc(-c2cccc(CN)c2)cc2cccnc12)C(=O)O` [Compound 12d, (2S)-2-[[3-[[6-[3-(Aminomethyl)-phenyl]-8-quinolyl]-sulfonylamino]-thiophene-2-carbonyl]-amino]-5-guanidino-pentanoic Acid, Formic Acid] as the compound, how does the Kd [2] read?
Answer: 650 ± 50 nM
